Measured values: publication PMC4210194, “Cyanobacterial Light-Driven Proton Pump, Gloeobacter Rhodopsin: Complementarity between Rhodopsin-Based Energy Production and Photosynthesis” (PLoS ONE, 2014)

Key:
[1] = molecular target: T1, Gloeobacter rhodopsin (GR, Gloeorhodopsin) (Gloeobacter violaceus, UniProt Q7NP59); assay: UV/VIS absorption of purified pigment; format: binding; conditions: covalent (protonated Schiff base, Lys257); 50 mM Tris pH 7, 150 mM NaCl, 0.02% DDM
T1 construct: gene gll0198

Asp121 = Asp121 (UniProt position 121, AYRYVDWLLTV); assay: UV-vis; conditions: 3-mix buffer (starting at pH ca. 12, adjusted downward with HCl); retinal-bound pigment, unphotolysed state; light or dark adaptation not stated

T1 sequence (Q7NP59 entry or part of it): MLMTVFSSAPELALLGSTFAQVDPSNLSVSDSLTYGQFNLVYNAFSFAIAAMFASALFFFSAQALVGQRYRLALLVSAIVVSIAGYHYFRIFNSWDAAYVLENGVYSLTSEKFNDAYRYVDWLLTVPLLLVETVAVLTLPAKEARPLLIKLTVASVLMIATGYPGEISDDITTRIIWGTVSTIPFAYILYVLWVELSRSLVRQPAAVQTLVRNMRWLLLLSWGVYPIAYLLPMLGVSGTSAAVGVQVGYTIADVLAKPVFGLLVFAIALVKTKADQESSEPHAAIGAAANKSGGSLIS

Row | Compound | UV/VIS absorption of purified pigment [1] | pKa (Asp121)
1 | CC1=C(/C=C/C(C)=C/C=C/C(C)=C/C=O)C(C)(C)CCC1 [all-trans retinal] | expressed in Escherichia coli and bound all-trans retinal to form a pigment | 
2 | Gloeobacter rhodopsin (GR, Gloeorhodopsin) (Gloeobacter violaceus PCC 7421) |  | 5.9
